Assay results taken from ChEMBL document CHEMBL5370642, “Synthesis and Bioevaluation of 3-(Arylmethylene)indole Derivatives: Discovery of a Novel ALK Modulator with Antiglioblastoma Activities” (J Med Chem, 2023).
pIC50: −log10 of the molar value. Activity calls are given as the source filed them. No cut-off for these calls is given here.

Tests used:
[1] = Cmax in C57BL6/J mouse at 5 mg/kg, iv measured upto 24 hrs by LC-MS/MS analysis; assay type: ADME, organism-based; parameters: dose 5 mg/kg, time < 24 hrs, route iv; details: in vivo
[2] = test system: GL261; experiment: Induction of autophagy in mouse GL261 cells assessed as decrease in mTOR phosphorylation at 0.5 to 2 uM incubated for 24 hrs by Western blot analysis; assay type: functional, cell-based; details: dose 0.5-2 µM
[3] = target: T1, ALK tyrosine kinase receptor (Homo sapiens, UniProt Q9UM73); experiment: Inhibition of human ALK using GF-IRtide as substrate by Kinase-Glo Plus luminescence kinase assay
Target sequence in this assay (Q9UM73 whole entry): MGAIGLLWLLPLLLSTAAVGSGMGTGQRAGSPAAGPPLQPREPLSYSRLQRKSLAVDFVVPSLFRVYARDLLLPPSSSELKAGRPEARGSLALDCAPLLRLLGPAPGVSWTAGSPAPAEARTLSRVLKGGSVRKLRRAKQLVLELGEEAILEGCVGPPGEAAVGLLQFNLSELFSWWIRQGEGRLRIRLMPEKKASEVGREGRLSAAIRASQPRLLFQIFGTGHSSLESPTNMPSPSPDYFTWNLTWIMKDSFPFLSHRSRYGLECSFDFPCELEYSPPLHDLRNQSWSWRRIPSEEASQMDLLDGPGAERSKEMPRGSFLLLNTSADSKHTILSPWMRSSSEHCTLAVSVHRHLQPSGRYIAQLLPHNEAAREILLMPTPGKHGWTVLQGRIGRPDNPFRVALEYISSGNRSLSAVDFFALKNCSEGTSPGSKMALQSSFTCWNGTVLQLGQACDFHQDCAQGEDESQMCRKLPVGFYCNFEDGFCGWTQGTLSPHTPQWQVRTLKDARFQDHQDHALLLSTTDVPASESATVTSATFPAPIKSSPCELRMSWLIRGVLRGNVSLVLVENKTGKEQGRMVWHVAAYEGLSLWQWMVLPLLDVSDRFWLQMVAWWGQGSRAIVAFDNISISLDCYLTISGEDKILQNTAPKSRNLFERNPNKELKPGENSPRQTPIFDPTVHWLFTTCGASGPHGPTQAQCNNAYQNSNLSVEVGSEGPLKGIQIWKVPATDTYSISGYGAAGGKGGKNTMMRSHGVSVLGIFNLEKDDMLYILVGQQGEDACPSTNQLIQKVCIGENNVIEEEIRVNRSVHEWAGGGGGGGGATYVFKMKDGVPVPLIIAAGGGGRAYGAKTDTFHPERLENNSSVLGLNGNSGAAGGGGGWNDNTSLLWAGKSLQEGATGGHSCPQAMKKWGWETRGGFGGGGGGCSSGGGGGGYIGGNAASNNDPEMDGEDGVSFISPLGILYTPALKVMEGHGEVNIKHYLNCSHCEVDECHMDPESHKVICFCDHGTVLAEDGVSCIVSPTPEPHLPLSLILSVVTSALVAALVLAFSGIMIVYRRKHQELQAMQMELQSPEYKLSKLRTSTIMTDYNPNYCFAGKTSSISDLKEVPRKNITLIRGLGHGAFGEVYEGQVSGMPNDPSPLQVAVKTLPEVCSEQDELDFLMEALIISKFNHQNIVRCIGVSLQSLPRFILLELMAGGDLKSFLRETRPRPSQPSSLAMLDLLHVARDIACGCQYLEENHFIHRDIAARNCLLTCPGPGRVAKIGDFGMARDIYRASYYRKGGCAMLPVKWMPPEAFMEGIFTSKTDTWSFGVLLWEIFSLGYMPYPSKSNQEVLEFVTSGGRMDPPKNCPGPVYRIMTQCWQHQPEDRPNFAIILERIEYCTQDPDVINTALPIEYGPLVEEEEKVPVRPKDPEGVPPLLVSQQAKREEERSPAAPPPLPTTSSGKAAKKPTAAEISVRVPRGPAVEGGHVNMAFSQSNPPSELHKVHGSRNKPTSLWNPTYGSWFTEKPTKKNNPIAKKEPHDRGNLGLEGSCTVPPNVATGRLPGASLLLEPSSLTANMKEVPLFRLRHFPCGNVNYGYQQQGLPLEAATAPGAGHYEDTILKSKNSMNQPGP

[4] = MRT (0 to 8hrs) in C57BL6/J mouse at 5 mg/kg, ip measured upto 24 hrs by LC-MS/MS analysis; assay type: ADME, organism-based; details: in vivo
[5] = test system: GL261; experiment: In vivo induction of apoptosis in mouse GL261 cells transfected with mRFP-GFPLC3 adenovirus allografted in C57BL/6J mouse model assessed as increase in cleaved caspase 3 level in tumor tissue at 2.5 to 5 mg/kg, ip by immunofluorescence assay; assay type: functional, organism-based; details: dose 2.5-5 mg/kg
[6] = test system: GL261; experiment: Anti glioblastoma activity against mouse GL261-mNeonGreenLuc cells stereotaxically injected in corpus striatum of orthotopic glioblastoma mouse model assessed as shrunken tumor tissue at 5 mg/kg, ip once daily measured on day 21 by H and E staining analysis; assay type: functional, organism-based
[7] = test system: GL261; experiment: Anti-proliferative activity against mouse GL261 cells assessed as inhibition rate at 2 uM incubated for 72 hrs by CCK8 assay relative to control; assay type: functional
[8] = test system: U-87 MG; experiment: Anti-proliferative activity against human U-87 MG cells assessed as cell viability incubated for 2 hrs by CCK8 assay; assay type: functional, cell-based, U-87MG ATCC
[9] = test system: GL261; experiment: Induction of cell cycle arrest in mouse GL261 cells assessed as accumulation of cells at S phase at 0.5 to 2 uM incubated for 24 to 72 hrs by flow cytometry; assay type: functional; details: dose 0.5-2 µM, time 24-72 hrs
[10] = AUC (0 to infinity) in C57BL6/J mouse at 5 mg/kg, ip measured upto 24 hrs by LC-MS/MS analysis; assay type: ADME, organism-based; parameters: time < 24 hrs, dose 5 mg/kg, route ip; details: in vivo
[11] = target: T1, ALK tyrosine kinase receptor; details: U-87 MG, dose 0.5-2 µM, time 24.0 hrs
Target sequence in this assay (Q9UM73 19-1620 limits assumed): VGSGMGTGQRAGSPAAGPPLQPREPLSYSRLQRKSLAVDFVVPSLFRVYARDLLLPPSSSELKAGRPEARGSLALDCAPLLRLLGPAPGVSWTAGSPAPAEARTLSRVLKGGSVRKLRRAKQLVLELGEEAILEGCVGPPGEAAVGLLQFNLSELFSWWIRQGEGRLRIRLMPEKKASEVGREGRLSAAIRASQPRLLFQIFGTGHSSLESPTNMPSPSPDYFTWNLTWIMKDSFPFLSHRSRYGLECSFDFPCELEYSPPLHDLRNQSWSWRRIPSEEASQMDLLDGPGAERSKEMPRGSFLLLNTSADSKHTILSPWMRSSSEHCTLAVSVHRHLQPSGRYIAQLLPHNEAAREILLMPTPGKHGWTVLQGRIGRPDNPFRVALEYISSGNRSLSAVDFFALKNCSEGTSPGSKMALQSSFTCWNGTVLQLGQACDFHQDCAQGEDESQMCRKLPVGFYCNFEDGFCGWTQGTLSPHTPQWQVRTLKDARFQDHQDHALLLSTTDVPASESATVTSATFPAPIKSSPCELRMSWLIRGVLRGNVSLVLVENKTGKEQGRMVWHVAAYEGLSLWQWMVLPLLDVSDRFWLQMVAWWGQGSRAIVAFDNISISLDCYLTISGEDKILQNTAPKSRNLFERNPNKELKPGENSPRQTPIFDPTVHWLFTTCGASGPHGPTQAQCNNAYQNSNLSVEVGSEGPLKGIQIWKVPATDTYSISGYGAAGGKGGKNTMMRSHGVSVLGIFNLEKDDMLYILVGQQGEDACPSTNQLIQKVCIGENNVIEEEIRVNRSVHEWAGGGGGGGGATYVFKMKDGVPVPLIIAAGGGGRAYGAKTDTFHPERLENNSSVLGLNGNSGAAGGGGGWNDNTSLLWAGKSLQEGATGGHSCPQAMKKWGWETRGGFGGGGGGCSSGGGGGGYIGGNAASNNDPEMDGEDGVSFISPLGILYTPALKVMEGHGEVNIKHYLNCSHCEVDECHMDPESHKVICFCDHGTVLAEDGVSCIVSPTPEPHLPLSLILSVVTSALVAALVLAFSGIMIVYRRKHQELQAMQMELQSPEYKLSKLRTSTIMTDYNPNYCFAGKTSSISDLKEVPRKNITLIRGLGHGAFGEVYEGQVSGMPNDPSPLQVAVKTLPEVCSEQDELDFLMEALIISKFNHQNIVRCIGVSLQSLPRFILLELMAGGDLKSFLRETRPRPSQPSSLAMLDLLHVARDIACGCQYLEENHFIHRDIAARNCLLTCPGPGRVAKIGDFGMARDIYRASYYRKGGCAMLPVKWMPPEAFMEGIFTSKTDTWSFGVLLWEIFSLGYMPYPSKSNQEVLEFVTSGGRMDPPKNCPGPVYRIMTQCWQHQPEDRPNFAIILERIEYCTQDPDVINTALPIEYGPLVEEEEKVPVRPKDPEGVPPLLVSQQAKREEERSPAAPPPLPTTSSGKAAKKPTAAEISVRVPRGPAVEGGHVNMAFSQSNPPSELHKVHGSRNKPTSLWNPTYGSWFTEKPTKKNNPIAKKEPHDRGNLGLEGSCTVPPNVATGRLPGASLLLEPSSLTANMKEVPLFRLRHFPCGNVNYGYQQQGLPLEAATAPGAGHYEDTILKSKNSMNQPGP

[12] = Half life in C57BL6/J mouse at 5 mg/kg, ip measured upto 24 hrs by LC-MS/MS analysis; assay type: ADME, organism-based; details: in vivo
[13] = test system: GL261; experiment: Induction of apoptosis in mouse GL261 cells assessed as increase in annexin-V+/PI- cells incubated for 24 to 72 hrs by flow cytometry; assay type: functional, cell-based; details: dose 0.5-2 µM, time 24-72 hrs
[14] = Cmax in C57BL6/J mouse at 5 mg/kg, ip measured upto 24 hrs by LC-MS/MS analysis; assay type: ADME, organism-based; parameters: time < 24 hrs, dose 5 mg/kg, route ip; details: in vivo
[15] = MRT (0 to infinity) in C57BL6/J mouse at 5 mg/kg, iv measured upto 24 hrs by LC-MS/MS analysis; assay type: ADME, organism-based; details: in vivo

Cmax [1]: 1.98 µg/mL
pIC50 [3]: 5.15
MRT last at 24 h [4]: 2.25 h
pIC50 [8]: 5.14
AUC(0-inf) [10]: 0.42 µg·h/mL
inhibition [11]: Active
half-life [12]: 3.55 h
Cmax [14]: 0.118 µg/mL
MRT inf [15]: 0.84 h
SMILES: Cc1ccc(S(=O)(=O)n2cc(Cc3cc(C)c(O)c(C)c3)c3ccccc32)cc1
Activity [2]: Active
Activity [5]: Active
Activity [6]: Active
inhibition at 2 µM [7]: 80%
Activity [9]: 24.5%
Activity [13]: Dose-Dependent Effect
